Measured values: patent US20230112279A1, “DETERGENT COMPOSITION” (Conopco, Inc., d/b/a UNILEVER, priority 2020, published 2023)

Key:
Resinase HT = experiment: Biochemical determination of lipase activity with Resinase HT; details: lipase 10 μg/L
Experimental: (§1) Lipase activity was determined by a colorimetric method using 4-nitrophenyl-valerate (C5) and 4-nitrophenyl-dodecanoate (C12) as substrates. 4-nitrophenyl-dodecanoate (25 mg) or 4-nitrophenyl-valerate (18 mg) were dissolved in 10 mL solvent (methanol) to prepare 8 mM stock solutions. 1 mL of stock solution was added in 7 mL of acidified water (pH 4.5), to give a final concentration of 1 mM (the substrate). In 96-well microtitre plates the following reagents were added: 60 μL dH2O, 80 μL Tris-HCl buffer (pH 8.5, 50 mM), 20 μL of diluted enzyme solution, 20 μL of saponin 10× concentrated stock solution. 20 μL substrate was then added to start the reaction. For zero enzyme controls, enzyme solution was replaced with H2O. Following the addition of substrate, the release of product (4-nitrophenol) was monitored at 405 nm for 15 min at ambient temperature in a Varioskan plate reader.
(§2) The dose response of various lipases to saponins were tested in a biochemical assay. The concentration of lipase in these experiments was 10 μg/L. This level was chosen to ensure that substrate hydrolysis and resultant increase in absorbance measurements falls within the sensitivity of the spectrophotometer. […] In all cases, the lipase activity increased as the escin concentration reached above a threshold value, which varied according to the enzyme in question, but was in the region 0.01 (Resinase HT) to 0.10 μM (Lipex, 100 L, Lipex Evity and Novozyme 51032).

Novozym 51032 = experiment: Biochemical determination of lipase activity with Novozym 51032; details: lipase 10 μg/L; for % increase in Lipase activity in the presence of escin saponin compared to absence of saponin: Novozym 51032
Experimental: as §1, §2

Lipex 100 L lipase [1] = target: T1, Lipex 100 L lipase (Thermomyces lanuginosus, UniProt O59952, N255R/T253R); experiment: Biochemical determination of lipase activity (4-nitrophenyl ester hydrolysis, 405 nm) with Lipex 100 L; details: for % increase in Lipase activity in the presence of escin saponin compared to absence of saponin: Lipex 100L; for Lipex 100L activity in the presence of saponins: 10 ng/mL lipase; for activation of Lipex 100 L: saponin at fixed concentration of 10 μM, FIG. 3
T1 construct: purchased Novozymes
T1 sequence (O59952 23-291 T253R/N255R): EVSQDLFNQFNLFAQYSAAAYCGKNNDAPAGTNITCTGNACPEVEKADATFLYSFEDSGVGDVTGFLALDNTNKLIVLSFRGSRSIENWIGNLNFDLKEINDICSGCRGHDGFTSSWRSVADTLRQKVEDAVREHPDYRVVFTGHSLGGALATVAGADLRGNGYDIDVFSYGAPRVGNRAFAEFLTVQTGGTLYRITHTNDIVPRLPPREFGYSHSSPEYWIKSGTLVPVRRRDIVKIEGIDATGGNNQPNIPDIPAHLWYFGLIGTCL
Experimental: as §1, §2
Activation of a single lipase (Lipex 100 L) by a variety of natural saponins and saponins derived through metabolic engineering were tested using the biochemical assay. The unglycosylated terpenoid, oleanolic acid (OA), was also tested to determine whether lipase activation was a result of the terpenoid moiety or required the terpenoid scaffold to be glycosylated. To compare this directly, the enzymes activation by saponins comprising oleanolic acid glycosylated with 3 or 4 glycoside residues at the C28 position of the triterpenoid (oleanolic acid-28-O-triglycoside (OA-28 x3Gly) and oleanolic acid-28-O-tetraglycoside (OA-28 x4Gly), were compared directly to the activation achieved by oleanolic acid.
Biochemical assays measuring lipase activity were initially used in high-throughput microtitre plate format to enable different saponins at different doses to be screened as potential inhibitors of Lipex 100 L lipase (Novozymes). Effective inhibitors are sought to prevent the lipase hydrolytic activity towards the soil release polymer which is typically observed. […] When using 10 ng/mL lipase ([…]) in this case (this level chosen to ensure that substrate hydrolysis and resultant increase in absorbance measurements falls within the sensitivity of the spectrophotometer) the typical saponin concentration required to inhibit the lipase was around 50-125 μM.

Lipex Evity = experiment: Biochemical determination of lipase activity with Lipex Evity; details: lipase 10 μg/L
Experimental: as §1, §2

Lipex 100 L lipase [2] = target: T1, Lipex 100 L lipase; experiment: Inhibition of Lipex 100 L at fixed dose of 500 μM (Example 7, C12 pNP ester); format: biochemical; details: fixed dose of 500 μM; for Lipex 100L lipase activity (inhibitory effect of various saponin derivatives): lipase 10 ng/mL final, 50 mM Tris pH 8.5, 25° C., C12 pNP ester 0.1 mM final, lipase-only control 0.0545; for lipase inhibition: Lipex 100 L 10 ng/mL, C12 pNP ester
Experimental: as §1
Various saponins were tested for their ability to inhibit Lipex 100 L lipase (10 ng/mL final). A buffer was used (50 mM Tris pH 8.5) and the experiments were carried out at 25° C. At a fixed dose of 500 μM a number of those tested were effective in lowering the lipase activity. The substrate used for testing as C12 pNP ester (0.1 mM final). These included glycosylated derivatives of oleanolic acid, avenacin, tea tree saponin as well as escin (table 4). Orlistat as a known inhibitor of lipase was also included for comparison (table 4).

Question: Which results are given for Escin?
Answer: threshold escin concentration above which lipase activity increased (Resinase HT): ~0.01 µM; % increase in Lipase activity in the presence of escin saponin compared to absence of saponin (Resinase HT; saponin dose 0.01 μM): 70%; % increase in Lipase activity in the presence of escin saponin compared to absence of saponin (Resinase HT; saponin dose 0.1 μM): 60%; % increase in Lipase activity in the presence of escin saponin compared to absence of saponin (Resinase HT; saponin dose 0.5 μM): 170%; % increase in Lipase activity in the presence of escin saponin compared to absence of saponin (Resinase HT; saponin dose 1 μM): 210%; % increase in Lipase activity in the presence of escin saponin compared to absence of saponin (Resinase HT; saponin dose 2.5 μM): 140%; % increase in Lipase activity in the presence of escin saponin compared to absence of saponin (Resinase HT; saponin dose 5 μM): 200%; % increase in Lipase activity in the presence of escin saponin compared to absence of saponin (Novozym 51032; saponin dose 0.01 μM): 0%; % increase in Lipase activity in the presence of escin saponin compared to absence of saponin (Novozym 51032; saponin dose 0.1 μM): 50%; % increase in Lipase activity in the presence of escin saponin compared to absence of saponin (Novozym 51032; saponin dose 0.5 μM): 50%; % increase in Lipase activity in the presence of escin saponin compared to absence of saponin (Novozym 51032; saponin dose 1 μM): 50%; % increase in Lipase activity in the presence of escin saponin compared to absence of saponin (Novozym 51032; saponin dose 2.5 μM): 150%; % increase in Lipase activity in the presence of escin saponin compared to absence of saponin (Novozym 51032; saponin dose 5 μM): 250%; threshold escin concentration above which lipase activity increased (Novozym 51032; Novozyme 51032): ~0.10 µM; ability to decrease lipase activity (in words) (Lipex 100 L lipase [1]; Lipex 100 L, Table 2 screen): decrease lipase activity to negligible levels; threshold escin concentration above which lipase activity increased (Lipex 100 L lipase [1]; Lipex 100 L, lipase 10 μg/L): ~0.10 µM; % increase in Lipase activity in the presence of escin saponin compared to absence of saponin (Lipex 100 L lipase [1]; saponin dose 0.01 μM, lipase 10 μg/L): −25%; % increase in Lipase activity in the presence of escin saponin compared to absence of saponin (Lipex 100 L lipase [1]; saponin dose 0.1 μM, lipase 10 μg/L): 25%; % increase in Lipase activity in the presence of escin saponin compared to absence of saponin (Lipex 100 L lipase [1]; saponin dose 0.5 μM, lipase 10 μg/L): 100%; % increase in Lipase activity in the presence of escin saponin compared to absence of saponin (Lipex 100 L lipase [1]; saponin dose 1 μM, lipase 10 μg/L): 450%; % increase in Lipase activity in the presence of escin saponin compared to absence of saponin (Lipex 100 L lipase [1]; saponin dose 2.5 μM, lipase 10 μg/L): 1650%; % increase in Lipase activity in the presence of escin saponin compared to absence of saponin (Lipex 100 L lipase [1]; saponin dose 5 μM, lipase 10 μg/L): 1775%; Lipex 100L activity in the presence of saponins (Lipex 100 L lipase [1]; saponin dose 0.01 μM): 0.257 Δabs/min @405 nm; Lipex 100L activity in the presence of saponins (Lipex 100 L lipase [1]; saponin dose 0.1 μM): 0.241 Δabs/min @405 nm; Lipex 100L activity in the presence of saponins (Lipex 100 L lipase [1]; saponin dose 0.5 μM): 0.247 Δabs/min @405 nm; Lipex 100L activity in the presence of saponins (Lipex 100 L lipase [1]; saponin dose 10 μM): 0.200 Δabs/min @405 nm; Lipex 100L activity in the presence of saponins (Lipex 100 L lipase [1]; saponin dose 25 μM): 0.204 Δabs/min @405 nm; Lipex 100L activity in the presence of saponins (Lipex 100 L lipase [1]; saponin dose 50 μM): 0.152 Δabs/min @405 nm; Lipex 100L activity in the presence of saponins (Lipex 100 L lipase [1]; saponin dose 125 μM): 0.006 Δabs/min @405 nm; Lipex 100L activity in the presence of saponins (Lipex 100 L lipase [1]; saponin dose 250 μM): 0.001 Δabs/min @405 nm; Lipex 100L activity in the presence of saponins (Lipex 100 L lipase [1]; saponin dose 500 μM): 0.001 Δabs/min @405 nm; threshold escin concentration above which lipase activity increased (Lipex Evity): ~0.10 µM; % increase in Lipase activity in the presence of escin saponin compared to absence of saponin (Lipex Evity; saponin dose 0.01 μM): 0%; % increase in Lipase activity in the presence of escin saponin compared to absence of saponin (Lipex Evity; saponin dose 0.1 μM): 20%; % increase in Lipase activity in the presence of escin saponin compared to absence of saponin (Lipex Evity; saponin dose 0.5 μM): 120%; % increase in Lipase activity in the presence of escin saponin compared to absence of saponin (Lipex Evity; saponin dose 1 μM): 200%; % increase in Lipase activity in the presence of escin saponin compared to absence of saponin (Lipex Evity; saponin dose 2.5 μM): 240%; % increase in Lipase activity in the presence of escin saponin compared to absence of saponin (Lipex Evity; saponin dose 5 μM): 260%; Lipex 100L lipase activity (inhibitory effect of various saponin derivatives) (Lipex 100 L lipase [2]): 0.0039 (±0.0027) abs/min @405 nm

Question: Avenacin was tested. Which lipase inhibition (Lipex 100 L lipase [2]) did it give?
Answer: Its lipase inhibition is “complete inhibition”.

Question: And the “Lipex 100L lipase activity (inhibitory effect of various saponin derivatives)” value (Lipex 100 L lipase [2])?
Answer: Its value is 0.0013 (±0.0006) abs/min @405 nm.

Question: How did the “Lipex 100L lipase activity (inhibitory effect of various saponin derivatives)” value (Lipex 100 L lipase [2]) turn out when `CCCCCCCCCCC[C@@H](C[C@@H]1OC(=O)[C@H]1CCCCCC)OC(=O)[C@H](CC(C)C)NC=O` [Orlistat, reference compound] was run?
Answer: Its value is −0.00032 (±0.0003) abs/min @405 nm.

Question: Which “activation of Lipex 100 L” value (Lipex 100 L lipase [1]) does the source give for “oleanolic acid-28-O-triglycoside [OA-28 x3Gly]” here?
Answer: Its value is “greater than 20 fold”.

Question: And the lipase inhibition (Lipex 100 L lipase [2])?
Answer: Its lipase inhibition is “complete inhibition”.

Question: What about the “Lipex 100L lipase activity (inhibitory effect of various saponin derivatives)” value (Lipex 100 L lipase [2]) of the same compound?
Answer: Its value is −0.0011 (±0.0005) abs/min @405 nm.

Question: What does the source list for `CC1(C)CC[C@]2(C(=O)O)CC[C@]3(C)C(=CC[C@@H]4[C@@]5(C)CC[C@H](O)C(C)(C)[C@@H]5CC[C@]43C)[C@@H]2C1` [Oleanolic acid, reference compound]?
Answer: activation of Lipex 100 L (Lipex 100 L lipase [1]): small activation; Lipex 100L lipase activity (inhibitory effect of various saponin derivatives) (Lipex 100 L lipase [2]): 0.0842 (±0.0084) abs/min @405 nm

Question: How did the lipase inhibition (Lipex 100 L lipase [2]) turn out when “oleanolic acid-28-O-tetraglycoside [OA-28 x4Gly]” was run?
Answer: The lipase inhibition was 80%.

Question: What about the “Lipex 100L lipase activity (inhibitory effect of various saponin derivatives)” value (Lipex 100 L lipase [2]) of the same compound?
Answer: The value was 0.0109 (±0.0006) abs/min @405 nm.

Question: For `CC1(C)[C@@H](O[C@H]2O[C@H](C(=O)O)[C@@H](O)[C@H](O)[C@H]2O[C@@H]2O[C@H](C(=O)O)[C@@H](O)[C@H](O)[C@H]2O)CC[C@]2(C)[C@H]3C(=O)C=C4[C@@H]5C[C@@](C)(C(=O)O)CC[C@]5(C)CC[C@@]4(C)[C@]3(C)CC[C@@H]12` [Glycyrrhizic acid], which “Lipex 100L activity in the presence of saponins” value (shortened to “Lipex 100L activity”) (Lipex 100 L lipase [1]; saponin dose 0.01 μM) is on record?
Answer: The value was 0.244 Δabs/min @405 nm.

Question: What about the “Lipex 100L activity” value (Lipex 100 L lipase [1]; saponin dose 0.1 μM) of the same compound?
Answer: The value was 0.252 Δabs/min @405 nm.

Question: What about the “Lipex 100L activity” value (Lipex 100 L lipase [1]; saponin dose 0.5 μM) of the same compound?
Answer: The value was 0.238 Δabs/min @405 nm.

Question: And the “Lipex 100L activity” value (Lipex 100 L lipase [1]; saponin dose 10 μM)?
Answer: Its value is 0.221 Δabs/min @405 nm.

Question: And the “Lipex 100L activity” value (Lipex 100 L lipase [1]; saponin dose 25 μM)?
Answer: The value was 0.171 Δabs/min @405 nm.

Question: What about the “Lipex 100L activity” value (Lipex 100 L lipase [1]; saponin dose 50 μM) of the same compound?
Answer: The value was 0.135 Δabs/min @405 nm.

Question: What about the “Lipex 100L activity” value (Lipex 100 L lipase [1]; saponin dose 125 μM) of the same compound?
Answer: The value was 0.116 Δabs/min @405 nm.

Question: What about the “Lipex 100L activity” value (Lipex 100 L lipase [1]; saponin dose 250 μM) of the same compound?
Answer: The value was 0.083 Δabs/min @405 nm.

Question: And the “Lipex 100L activity” value (Lipex 100 L lipase [1]; saponin dose 500 μM)?
Answer: Its value is 0.068 Δabs/min @405 nm.
